Patent US20170008928A1, “NOVEL PEPTIDES AND PEPTIDE DERIVATIVES AND USES THEREOF” (Novo Nordisk A/S, priority 2015, published 2017)
Read-outs that look alike come from different tables or passages of the source. Starred links: 1 amine or outer side, 2 acyl side, 3 side chain; linkers in the order of their positions; H or OH if unused. Non-standard residues stand in square brackets, D forms with d. Residues, ends and D or L forms follow the SMILES beside them. *: point of attachment. Phe(4-CH2SO3H) = N[C@@H](Cc1ccc(CS(=O)(=O)O)cc1)C(=O)O; C20 diacid = O=C(O)CCCCCCCCCCCCCCCCCCC(=O)*; sY = N[C@@H](Cc1ccc(OS(=O)(=O)O)cc1)C(=O)O; C18 diacid = O=C(O)CCCCCCCCCCCCCCCCC(=O)*; γGlu = O=C(O)[C@H](CCC(=O)[*:2])N[*:1]; βAsp = O=C(O)[C@H](CC(=O)[*:2])N[*:1]; NMeF = CN[C@@H](Cc1ccccc1)C(=O)O; dNMeD = CN[C@H](CC(=O)O)C(=O)O; Nle = CCCC[C@H](N)C(=O)O; AEEA = NCCOCCOCC(=O)O

What was measured:
[1] = target: T1, human cholecystokinin-2 receptor (CCK-2R) (Homo sapiens, UniProt P32239); assay: In vitro receptor binding to CCK-2R, SPA displacement of [125I]-CCK-8s from plasma membranes
T1 construct: host or cells: 1321-N1 cells (plasma membranes prepared by Evotec AG Hamburg)
T1 sequence (P32239 1-447): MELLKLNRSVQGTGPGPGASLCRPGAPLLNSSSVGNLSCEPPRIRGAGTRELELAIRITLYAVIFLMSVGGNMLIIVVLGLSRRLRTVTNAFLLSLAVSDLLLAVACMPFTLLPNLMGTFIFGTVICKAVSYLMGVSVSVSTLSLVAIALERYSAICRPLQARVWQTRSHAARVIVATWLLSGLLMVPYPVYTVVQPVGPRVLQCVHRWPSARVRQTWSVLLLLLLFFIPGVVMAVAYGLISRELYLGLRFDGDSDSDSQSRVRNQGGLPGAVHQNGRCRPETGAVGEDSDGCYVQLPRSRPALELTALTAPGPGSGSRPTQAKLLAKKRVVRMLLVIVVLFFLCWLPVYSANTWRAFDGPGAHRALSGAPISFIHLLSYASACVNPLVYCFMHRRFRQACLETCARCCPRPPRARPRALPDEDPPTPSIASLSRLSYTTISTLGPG
Experimental: The in vitro binding affinity is a measure of the strength of attraction between a receptor and its ligand.
Displacement of radio ligand was measured as reduction in light emission from SPA beads.
The cells used in these assays were 1321-N1 cells stably expressing the CCK-1R or the CCK-2R (Perkin Elmer product numbers ES-530-A and ES-531-A, respectively see www.perkinelmer.com/Catalog/Product/ID/ES-530-A or -ES-531-A, respectively).
The cells were cultured in an incubator (95% RH (relative humidity), 5% (of standard atmospheric pressure) CO2, 37° C.) in cell culture medium (DMEM (Lonza catalogue BE-12-604F/U1), with 10% (v/v) Foetal Calf Serum (FCS, Gibco catalogue 16140-071), 1% (w/w) Sodium pyruvate (Gibco catalogue 11360-039), 500 μg/ml Geneticin® (G418) (Gibco catalogue 10131-027), 25 μg/ml Zeocin™ (Invitrogen catalogue R250-05), 1% (w/w) Pen/Strep (Gibco catalogue 15140-122)).
Plasma membranes were prepared by Evotec AG Hamburg by use of the ParrBomb (#4635, Parr Instrument Company). Cells were lysed with a lysis buffer (50 mM Tris, 2.5 mM EDTA, pH7) with added protease inhibitors (Complete Proteaseinhibitors EDTA-free (#05056489001, Roche), 1 tablet per 50 mL lysis buffer). The membrane fraction was separated by centrifugation. First, the cell lysate was centrifuged at 1000×g for 10 minutes at 4° C. The pellet was discarded and the supernatant was then centrifuged at 100.000×g for 30 minutes at 4° C. The supernatant was discarded and the pellet was re-suspended in 1 ml/5×10^8 cells ice cold membrane buffer (50 mM Tris, 320 mM Sucrose and Complete Proteaseinhibitors EDTA-free (#05056489001, Roche); pH7.4) and homogenised with dounce homogeniser. The protein concentration was determined using the Pierce™ BCA Protein Assay Kit according to kit manual, and the membrane preparation was adjust to the desired protein concentration with membrane buffer and aliquoted into pre-cooled tubes, snap-frozen in liquid nitrogen, and stored at −80° C.
CCK receptor binding assays were performed in 96-well Optiplates (Cat #6005290, PerkinElmer, Waltham, Mass., USA) in a total volume of 200 μl per well. CCK derivatives in 80% DMSO stock solutions of 800 μM were serially diluted […] in assay buffer (50 mM Tris/HCl, 4.5 mM MgCl2, […], 0.02% Tween 20, 0.25% ovalbumin, 0.1% pluronic F-68, pH 7.4) to final assay concentrations ranging from 10^−5 M (ten μM) to 10^−12 M (one pM).
Fifty μl of reference or test compounds were added to the Optiplates (using technical duplicates, i.e. two wells of each sample, one data point being the average of two wells), followed by addition of 150 μl of the mixture of SPA bead, radio ligand, and plasma membrane. The plates were sealed and incubated in the dark at +22° C. for 2 hours on a IKA MTS plate shaker (IKA-Werke D-79219 Staufen) set at 300 rpm and thereafter centrifuged at 1500 rpm for 10 minutes in a Heraeus Multifuge 3s centrifuge. SPA bead light emission was measured in a TopCount NXT (PerkinElmer) for 2 min/well after a delay of 60 min.
As a measure of compound affinity, calculations were performed in order to determine the half maximal inhibitory concentration (the IC50 value).
The data from the TopCounter were given as counts per minute (CPM). The CPM was plotted as a function of the concentration of compound. Dose-response curves were obtained, and IC50 values were calculated, by a nonlinear three-parameter logistic equation (log(agonist) vs response) with hillslope=−1, and shared top and bottom using the software programme GraphPad Prism v 6.0 (Graph Pad software, La Jolla, Calif., USA). The highest dose tested was 10^−5 M (1×10^7 pM).
The preference of a specific compound for the CCK-1 receptor, or the CCK-1R selectivity, may be defined as IC50 (CCK-2R)/IC50 (CCK-1R).
A minimum of three biological replicates was measured for each test compound on separate assay plates.

[2] = target: T1, human cholecystokinin-2 receptor (CCK-2R); assay: In vitro potency on CCK-2R, whole cell functional assay (IP1 accumulation, IP-One HTRF); type: cell-based
[3] = displacement of [125I]-CCK-8s, plasma membranes of 1321-N1 cells expressing CCK-2R, highest dose tested 1×10^7 pM, read-out: IC50 (CCK-2R)
[4] = 1321-N1 cells stably expressing CCK-2R, IP1 accumulation, highest dose tested 1×10^6 pM, read-out: EC50 (CCK-2R)

Structure (SMILES)	IC50 [1, 3]	EC50 [2, 4]	IC50 [1]	EC50 [2]
CC(C)C[C@H](NC(=O)[C@H](Cc1ccc(OS(=O)(=O)O)cc1)NC(=O)[C@H](CC(=O)O)NC(=O)COCCOCCNC(=O)COCCOCCNC(=O)CC[C@H](NC(=O)CCCCCCCCCCCCCCCCC(=O)O)C(=O)O)C(=O)NCC(=O)N[C@@H](Cc1c[nH]c2ccccc12)C(=O)N[C@@H](CC(C)C)C(=O)N(C)[C@H](CC(=O)O)C(=O)N(C)[C@@H](Cc1ccccc1)C(N)=O [Example 13, 2-[2-[2-[[2-[2-[2-[[(4S)-4-Carboxy-4-(17-carboxyheptadecanoylamino)butanoyl]amino]ethoxy]ethoxy]acetyl]amino]ethoxy]ethoxy]acetyl-Asp-sTyr-Leu-Gly-Trp-Leu-DMeAsp-MePhe-amide]	–	–	420 nM	79 nM
CC(C)C[C@H](NC(=O)[C@H](Cc1ccc(OS(=O)(=O)O)cc1)NC(=O)[C@H](CC(=O)O)NC(=O)COCCOCCNC(=O)COCCOCCNC(=O)CC[C@H](NC(=O)CCCCCCCCCCCCCCCCC(=O)O)C(=O)O)C(=O)NCC(=O)N[C@@H](Cc1c[nH]c2ccccc12)C(=O)N1CCC[C@H]1C(=O)N(C)[C@H](CC(=O)O)C(=O)N(C)[C@@H](Cc1ccccc1)C(N)=O [Example 15, 2-[2-[2-[[2-[2-[2-[[(4S)-4-Carboxy-4-(17-carboxyheptadecanoylamino)butanoyl]amino]ethoxy]ethoxy]acetyl]amino]ethoxy]ethoxy]acetyl-Asp-sTyr-Leu-Gly-Trp-Pro-DMeAsp-MePhe-amide] ({C18 diacid-γGlu-AEEA-AEEA}-D[sY]LGWP[dNMeD][NMeF]-NH2)	–	–	1000 nM	150 nM
CCCC[C@H](NC(=O)[C@H](Cc1c[nH]c2ccccc12)NC(=O)CNC(=O)[C@H](CCCCN)NC(=O)[C@H](Cc1ccc(OS(=O)(=O)O)cc1)NC(=O)[C@H](CC(=O)O)NC(=O)COCCOCCNC(=O)COCCOCCNC(=O)CC[C@H](NC(=O)CCCCCCCCCCCCCCCCC(=O)O)C(=O)O)C(=O)N(C)[C@H](CC(=O)O)C(=O)N(C)[C@@H](Cc1ccccc1)C(N)=O [Example 16, 2-[2-[2-[[2-[2-[2-[[(4S)-4-Carboxy-4-(17-carboxyheptadecanoylamino)butanoyl]amino]ethoxy]ethoxy]acetyl]amino]ethoxy]ethoxy]acetyl-Asp-sTyr-Lys-Gly-Trp-Nle-DMeAsp-MePhe-amide] ({C18 diacid-γGlu-AEEA-AEEA}-D[sY]KGW[Nle][dNMeD][NMeF]-NH2)	–	–	> 10000 nM	–
CCCC[C@H](NC(=O)[C@H](Cc1c[nH]c2ccccc12)NC(=O)CNC(=O)[C@H](CC(C)C)NC(=O)[C@H](Cc1ccc(OS(=O)(=O)O)cc1)NC(=O)[C@H](CCC(=O)O)NC(=O)COCCOCCNC(=O)COCCOCCNC(=O)CC[C@H](NC(=O)CCCCCCCCCCCCCCCCCCC(=O)O)C(=O)O)C(=O)N(C)[C@H](CC(=O)O)C(=O)N(C)[C@@H](Cc1ccccc1)C(N)=O [Example 37, 2-[2-[2-[[2-[2-[2-[[(4S)-4-Carboxy-4-(19-carboxynonadecanoylamino)butanoyl]amino]ethoxy]ethoxy]acetyl]amino]ethoxy]ethoxy]acetyl-Glu-sTyr-Leu-Gly-Trp-Nle-DMeAsp-MePhe-amide] ({C20 diacid-γGlu-AEEA-AEEA}-E[sY]LGW[Nle][dNMeD][NMeF]-NH2)	430 nM	–	–	–

Second part, led by results:

IC50 [1, 3]	EC50 [2, 4]	Structure (SMILES)	IC50 [1]	EC50 [2]
> 10000 nM	> 1000 nM	CCCC[C@H](NC(=O)[C@H](Cc1ccc(CS(=O)(=O)O)cc1)NC(=O)C[C@H](NC(=O)COCCOCCNC(=O)COCCOCCNC(=O)CC[C@H](NC(=O)CCCCCCCCCCCCCCCCC(=O)O)C(=O)O)C(=O)O)C(=O)NCC(=O)N[C@@H](Cc1c[nH]c2ccccc12)C(=O)N[C@@H](CCCC)C(=O)N(C)[C@H](CC(=O)O)C(=O)N(C)[C@@H](Cc1ccccc1)C(N)=O [Example 26, 2-[2-[2-[[2-[2-[2-[[(4S)-4-Carboxy-4-(17-carboxyheptadecanoylamino)butanoyl]amino]ethoxy]ethoxy]acetyl]amino]ethoxy]ethoxy]acetyl-bAsp-Phe(4-sulfomethyl)-Nle-Gly-Trp-Nle-DMeAsp-MePhe-amide] ({C18 diacid-γGlu-AEEA-AEEA-βAsp}-[Phe(4-CH2SO3H)][Nle]GW[Nle][dNMeD][NMeF]-NH2)	–	–
480 nM	110 nM	CCCC[C@H](NC(=O)[C@H](Cc1c[nH]c2ccccc12)NC(=O)CNC(=O)[C@H](CC(C)C)NC(=O)[C@H](Cc1ccc(OS(=O)(=O)O)cc1)NC(=O)[C@H](CC(=O)O)NC(=O)COCCOCCNC(=O)COCCOCCNC(=O)COCCOCCNC(=O)COCCOCCNC(=O)CC[C@H](NC(=O)CCCCCCCCCCCCCCCCC(=O)O)C(=O)O)C(=O)N(C)[C@H](CC(=O)O)C(=O)N(C)[C@@H](Cc1ccccc1)C(N)=O [Example 31, 2-[2-[2-[[2-[2-[2-[[2-[2-[2-[[2-[2-[2-[[(4S)-4-Carboxy-4-(17-carboxyheptadecanoylamino)butanoyl]amino]ethoxy]ethoxy]acetyl]amino]ethoxy]ethoxy]acetyl]amino]ethoxy]ethoxy]acetyl]amino]ethoxy]ethoxy]acetyl-Asp-sTyr-Leu-Gly-Trp-Nle-DMeAsp-MePhe-amide]	–	–
380 nM	46 nM	CCCC[C@H](NC(=O)[C@H](Cc1c[nH]c2ccccc12)NC(=O)CNC(=O)[C@H](CC(C)C)NC(=O)[C@H](Cc1ccc(OS(=O)(=O)O)cc1)NC(=O)[C@H](CC(=O)O)NC(=O)CC[C@H](NC(=O)COCCOCCNC(=O)COCCOCCNC(=O)CC[C@H](NC(=O)CCCCCCCCCCCCCCCCC(=O)O)C(=O)O)C(=O)O)C(=O)N(C)[C@H](CC(=O)O)C(=O)N(C)[C@@H](Cc1ccccc1)C(N)=O [Example 32, (4S)-4-Carboxy-4-[[2-[2-[2-[[2-[2-[2-[[(4S)-4-carboxy-4-(17-carboxyheptadecanoylamino)butanoyl]amino]ethoxy]ethoxy]acetyl]amino]ethoxy]ethoxy]acetyl]amino]butanoyl-Asp-sTyr-Leu-Gly-Trp-Nle-DMeAsp-MePhe-amide]	–	–
340 nM	–	CCCC[C@H](NC(=O)[C@H](Cc1c[nH]c2ccccc12)NC(=O)CNC(=O)[C@@H](NC(=O)[C@H](Cc1ccc(OS(=O)(=O)O)cc1)NC(=O)[C@H](CC(=O)O)NC(=O)COCCOCCNC(=O)COCCOCCNC(=O)CC[C@H](NC(=O)CCCCCCCCCCCCCCCCC(=O)O)C(=O)O)[C@@H](C)CC)C(=O)N(C)[C@H](CC(=O)O)C(=O)N(C)[C@@H](Cc1ccccc1)C(N)=O [Example 47, 2-[2-[2-[[2-[2-[2-[[(4S)-4-Carboxy-4-(17-carboxyheptadecanoylamino)butanoyl]amino]ethoxy]ethoxy]acetyl]amino]ethoxy]ethoxy]acetyl-Asp-sTyr-Ile-Gly-Trp-Nle-DMeAsp-MePhe-amide] ({C18 diacid-γGlu-AEEA-AEEA}-D[sY]IGW[Nle][dNMeD][NMeF]-NH2)	–	–
